This is an account of results in patent US11377466B2, “Analogs of the natural product icariin” (Whitehead Institute for Biomedical Research, priority 2018, dated 2022).

For orientation: IC50 means the midpoint of a concentration-inhibition curve. Broadly, the Ki is the dissociation constant of the complex between target and ligand, obtained from inhibition or displacement.

One experiment concerns BJHTERT+ cells. The experiment in a line: Cytotoxicity measured by resazurin, BJHTERT+ (BjH+). In kind it is cell-based. Conditions: Homo sapiens, 0-10 μM. The procedure: (§1) A general feature of compounds with promise as viable therapeutics is a lack of toxicity to human cells. To test the icariin analogs for this feature, each analog was assayed against a panel of five human cell lines for cytotoxicity. The five human cell lines represent various tissue types—normalized, untransformed epithelial cells derived from fetal foreskin, neuroblastoma, melanoma, prostate, and lung. A Western blot against PDE5 confirmed that all five cell lines express PDE5 protein (data not shown). Compounds 2-7 were assayed at concentrations ranging from 0-10 μM, ensuring that all compounds remained soluble. […]
Background: Alamar Blue is a resazurin reagent that responds to reducing activity.

The subject of another experiment is H187 cells. Put plainly: Cytotoxicity measured by resazurin, H187. In kind it is cell-based. Particulars: Homo sapiens, NCI-H187, 0-10 μM. The procedure:
as §1

The subject of the next experiment is SKMEL-5 cells. Put plainly: Cytotoxicity measured by resazurin, SKMEL-5. In kind it is cell-based. Conditions: Homo sapiens, SK-MEL-5, 0-10 μM. The procedure:
as §1

The subject of experiment [1] is panel of five human cell lines. Put plainly: Cytotoxicity against a panel of five human cell lines (resazurin). In kind it is cell-based. Particulars: 2 and 4: two out of five cell lines, 6: three out of five cell lines, 0-10 μM, read-out: IC50 of toxicity in the affected cell lines. The procedure:
as §1

The target in experiment [2] is T1, human PDE5 (Homo sapiens, UniProt O76074).
T1 construct: host or cells: COS-7 cells (lysate), transfected with human PDE5
Conditions: reported by Dell'Agli et al.; COS-7 lysate expressing human PDE5; cited from earlier work.

Experiment [3] concerns the target T2, purified recombinant human PDE5 (Homo sapiens, UniProt O76074).
T2 construct: purchased Abcam AB125581
Put plainly: In vitro PDE5 inhibition assay (GMP production from cGMP, LC-MS). Conditions: for IC50: cGMP at 1/10 of Km. In kind it is biochemical. The procedure:
To evaluate the nine icariin analogs, the IC50 of each analog, icariin, and sildenafil were measured in an in vitro PDE5 inhibition assay, which measures GMP production from cGMP by purified recombinant human PDE5. Table 1 summarizes the IC50 values obtained for the nine icariin analogs tested. Fold improved potency in Table 1 refers to fold change in IC50 compared to icariin.
[…]. […] PDE5 (purified recombinant human PDE5 purchased from Abcam, Product No. AB125581) was added to start the reaction. The reaction was at room temperature until approximately 10-15% of cGMP in uninhibited control reactions was consumed. Keeping cGMP concentration low and staying within a linear reaction ensured that the reaction remained within Michaelis-Menten model assumptions and that the IC50 could be approximated to the inhibition constant or Ki (as substrate concentration decreases, IC50 value approaches Ki value). The reaction was stopped with the addition of 0.1 M hydrochloric acid. The amount of GMP produced was measured by LC-MS.

For experiment [4], the target named is T1, human PDE5. Particulars: competitive inhibitor of human PDE5; previous work; cited from earlier work.
The subject of experiment [5] is cavernous smooth muscle cells. Conditions: cavernous smooth muscle cells isolated from icariin-treated mice; cited from earlier work.
Where [6] appears, read: purified recombinant human PDE5.

Where two headings read alike, the source gives them in different places.

Regarding `COc1ccc(-c2oc3c(CC=C(C)C)c(O)cc(O)c3c(=O)c2OCCO)cc1` [Compound 6], the IC50 with BJHTERT+ cells is 6.73 µM; with H187 cells, 5.92 µM; in the experiment with SKMEL-5 cells, 4.45 µM; in experiment [1] it was 4000 to 7000 nM.
On to `COc1ccc(-c2oc3c(CC=C(C)C)c(O)cc(O)c3c(=O)c2O[C@@H]2O[C@H](C)[C@@H](O)[C@H](O)[C@@H]2O)cc1` [Compound 1, icariside II], for which the half-inhibitory concentration (IC50) on human PDE5 [2] was 160 nM.
With `COc1ccc(-c2oc3c(CC=C(C)C)c(O[C@@H]4O[C@H](CO)[C@@H](O)[C@H](O)[C@H]4O)cc(O)c3c(=O)c2OCC(C)O)cc1` (stereo partly shown) [Compound 5], the IC50 in experiment [3] (setting [6]) was 500 ± 100 nM.
As for `COc1ccc(-c2oc3c(CC=C(C)C)c(O[C@@H]4O[C@H](CO)[C@@H](O)[C@H](O)[C@H]4O)cc(O)c3c(=O)c2O[C@@H]2O[C@@H](C)[C@H](O)[C@@H](O)[C@H]2O)cc1` [icariin], the Field improved potency in experiment [3] (fold change in IC50 compared to icariin) was determined as 1. Moreover, the half-maximal inhibitory concentration (IC50) was 6000 ± 1000 nM in experiment [3] (setting [6]) and 1000 to 6000 nM on human PDE5 [4]. The cGMP levels result in experiment [5] is “increase cGMP levels”.
For the compound `COc1ccc(-c2oc3c(CC=C(C)C)c(O[C@@H]4O[C@H](CO)[C@@H](O)[C@H](O)[C@H]4O)cc(O)c3c(=O)c2OCCO)cc1` [Compound 3], the Ki in experiment [3] (enzyme kinetics, purified recombinant human PDE5) is 36 ± 5 nM. For the same compound, the IC50 in experiment [3] (setting [6]) turned out to be 83 ± 10 nM.
Take `COc1ccc(-c2oc3c(CC=C(C)C)c(O)cc(O)c3c(=O)c2O)cc1` [Compound 9, icaritin]: the IC50 in experiment [3] (setting [6]) came out at 1800 ± 800 nM.
